What was measured:
[1] = tested on: P. aeruginosa MB9798 (efflux+, IMP-1 plasmid); conditions: for MB9798 MITC95 P. aeruginosa uM Efflux WT: efflux + (MB9798) strain, imipenem at 2 μg/mL, in the presence of a class A, C, D serine β-lactamase inhibitor closely related to relebactam; for Efflux ratio: fold difference between efflux+ (MB9798) and efflux− (MB9799) strains
In short: (§1)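 PAO1-derived isogenic pair (oprD+, inducible AmpC), efflux+ MB5919 or efflux− MB5890 parent, carrying an electroporated IMP-1 plasmid from a clinical isolate. Microbroth MIC with fixed imipenem and/or ceftazidime (usually CLSI breakpoint) plus fixed class A/C inhibitor; MBL inhibitor serially titrated, concentration restoring susceptibility recorded.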

VIM-2 = VIM-2 (Escherichia coli, UniProt Q5U7L7); experiment: biochemical; conditions: CCF2-FA fluorescence assay; read-out: VIM2 IC50
NDM-1 = NDM-1 (Klebsiella pneumoniae, UniProt C7C422); experiment: biochemical; assay type: biochemical; conditions: CCF2-FA fluorescence assay, 2 hours at 25° C.
NDM-1, sequence (C7C422 whole entry, looked up, species assumed): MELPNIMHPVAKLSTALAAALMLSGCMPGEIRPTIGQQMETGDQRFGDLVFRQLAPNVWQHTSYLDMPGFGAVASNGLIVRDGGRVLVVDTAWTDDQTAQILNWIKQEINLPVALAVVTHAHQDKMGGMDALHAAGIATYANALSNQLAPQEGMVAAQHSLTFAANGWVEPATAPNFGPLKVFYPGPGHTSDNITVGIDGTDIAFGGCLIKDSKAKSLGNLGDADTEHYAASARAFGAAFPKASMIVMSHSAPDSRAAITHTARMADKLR
In short: (§2)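 In 100 mM phosphate pH 7 containing Tween-20 and ZnSO4, NDM-1 (1 pM), IMP-1 (2 pM) or VIM-1 (30 pM) hydrolysed 1.25 μM CCF2-FA over 2 hours at 25° C with inhibitor present. Readout was 405/460 nm fluorescence.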

IMP-1 = IMP-1 (Serratia marcescens, UniProt P52699); experiment: biochemical; conditions: CCF2-FA fluorescence assay, 2 hours at 25° C.; read-out: IMP1 IC50
IMP-1, sequence (P52699 whole entry, looked up, species assumed): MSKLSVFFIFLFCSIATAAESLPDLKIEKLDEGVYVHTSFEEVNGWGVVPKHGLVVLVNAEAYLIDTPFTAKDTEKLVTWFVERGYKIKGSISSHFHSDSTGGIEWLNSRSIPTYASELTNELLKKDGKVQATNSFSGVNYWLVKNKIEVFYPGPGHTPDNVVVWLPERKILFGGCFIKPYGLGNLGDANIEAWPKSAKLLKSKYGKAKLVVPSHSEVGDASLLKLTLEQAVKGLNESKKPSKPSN
In short: as §2

VIM-1 = VIM-1 (Pseudomonas aeruginosa (strain ATCC 15692 / DSM 22644 / CIP 104116 / JCM 14847 / LMG 12228 / 1C / PRS 101 / PAO1), UniProt A0A0F7KYQ8); experiment: biochemical; conditions: CCF2-FA fluorescence assay, 2 hours at 25° C.; read-out: VIM1 IC50
In short: as §2

[2] = tested on: Serratia marcescens expressing IMP-1 (CL5741); assay type: cell-based; conditions: with imipenem 1 μg/ml; 95% inhibition of bacterial growth
In short: (§3)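 Imipenem 1 μg/ml + inhibitor titration in cation-adjusted MHB (1.1× stock medium); overnight-cultured colonies suspended in saline, diluted 1:100. 35 °C, 22–24 h; absorbance read. MITC95 = lowest compound conc giving 95% growth inhibition.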

[3] = tested on: Klebsiella pneumoniae expressing VIM-1 (IHMA599644); assay type: cell-based; conditions: with imipenem 1 μg/ml; 95% inhibition of bacterial growth
In short: as §3

[4] = tested on: Escherichia coli expressing NDM-1 (CLB30016); assay type: cell-based; conditions: with imipenem 1 μg/ml; 95% inhibition of bacterial growth
In short: as §3

[5] = tested on: P. aeruginosa MB9799 (efflux-, IMP-1 plasmid); assay type: cell-based, Pseudomonas aeruginosa; conditions: efflux − (MB9799) strain; imipenem at 2 μg/mL; in the presence of a class A, C, D serine β-lactamase inhibitor closely related to relebactam
In short: as §1

Row | Compound | MB9798 MITC95 P. aeruginosa uM Efflux WT [1] | Efflux ratio [1] | IC50 (VIM-2) | IC50 (NDM-1) | IC50 (IMP-1) | IC50 (VIM-1) | CL5741 S. marcescens MITC95 IMP [2] | IHMA599644 K. pneumoniae MITC95 VIM [3] | CLB30016 E. coli MITC95 NDM [4] | MB9799 MITC95 P. aeruginosa uM Efflux Mutant [5]
1 | COC1(CO)CCN(c2ccc(S(=O)(=O)N[C@H](C)CN)c(S(N)(=O)=O)c2-c2nn[nH]n2)CC1 [Example 19, (R)-N1-(1-aminopropan-2-yl)-4-(4-(hydroxymethyl)-4-methoxypiperidin-1-yl)-3-(2H-tetrazol-5-yl)benzene-1,2-disulfonamide] | 3.13 µM | 1.00 | 2.27 nM | 0.17 nM | 0.37 nM | 0.65 nM | 3.13 µM | 12.50 µM | 3.13 µM | 3.13 µM
2 | NC[C@@H](O)CNS(=O)(=O)c1ccc(N2CCOC(CO)C2)c(-c2nn[nH]n2)c1S(N)(=O)=O (stereo partly drawn) [Example 20, N^1—((R)-3-amino-2-hydroxypropyl)-4-(2-(hydroxymethyl)morpholino)-3-(2H-tetrazol-5-yl)benzene-1,2-disulfonamide] | 3.13 µM | 4.00 | 0.49 nM | 0.77 nM | 1.53 nM | 0.26 nM | 0.78 µM | 3.13 µM | 1.56 µM | 0.78 µM
3 | COC1(CO)CCN(c2ccc(S(=O)(=O)NC[C@H](O)CN)c(S(N)(=O)=O)c2-c2nn[nH]n2)CC1 [Example 21, (R)-N^1-(3-amino-2-hydroxypropyl)-4-(4-(hydroxymethyl)-4-methoxypiperidin-1-yl)-3-(2H-tetrazol-5-yl)benzene-1,2-disulfonamide] | 3.13 µM | 1.00 | 2.7 nM | 0.41 nM | 0.56 nM | 1.13 nM | 6.25 µM | 12.50 µM | 12.50 µM | 3.13 µM
4 | NC[C@@H](O)CNS(=O)(=O)c1ccc(N2CCC(F)(CO)CC2)c(-c2nn[nH]n2)c1S(N)(=O)=O [Example 22, (R)-N^1-(3-amino-2-hydroxypropyl)-4-(4-fluoro-4-(hydroxymethyl)piperidin-1-yl)-3-(2H-tetrazol-5-yl)benzene-1,2-disulfonamide] | 1.56 µM | 1.00 | 0.79 nM | 0.45 nM | 0.7 nM | 0.35 nM | 1.56 µM | 6.25 µM | 3.13 µM | 1.56 µM
5 | NC[C@@H](O)CNS(=O)(=O)c1ccc(N2CCCN(CCO)CC2)c(-c2nn[nH]n2)c1S(N)(=O)=O [Example 23, (R)-N^1-(3-amino-2-hydroxypropyl)-4-(4-(2-hydroxyethyl)-1,4-diazepan-1-yl)-3-(2H-tetrazol-5-yl)benzene-1,2-disulfonamide] | 3.13 µM | 2.00 | 10 nM | 19.7 nM | 40.5 nM | 1.48 nM | 1.56 µM | 0.78 µM | 0.39 µM | 1.56 µM
6 | NCCC1CCN(c2ccc(S(=O)(=O)NC[C@H](O)CN)c(S(N)(=O)=O)c2-c2nn[nH]n2)CC1 [Example 24, (R)-N^1-(3-amino-2-hydroxypropyl)-4-(4-(2-aminoethyl)piperidin-1-yl)-3-(2H-tetrazol-5-yl)benzene-1,2-disulfonamide] | 1.56 µM | 1.00 | 5.6 nM | 5.09 nM | 5.79 nM | 0.45 nM | 3.13 µM | 6.25 µM | 1.56 µM | 1.56 µM
7 | NC[C@@H](O)CNS(=O)(=O)c1ccc(N2CCC(CC(N)=O)CC2)c(-c2nn[nH]n2)c1S(N)(=O)=O [Example 25, (R)-2-(1-(4-(N-(3-amino-2-hydroxypropyl)sulfamoyl)-3-sulfamoyl-2-(2H-tetrazol-5-yl)phenyl)piperidin-4-yl)acetamide] | 3.13 µM | 1.00 | 0.74 nM | 0.54 nM | 0.39 nM | 0.17 nM | 6.25 µM | 6.25 µM | 3.13 µM | 3.13 µM
8 | NC[C@@H](O)CNS(=O)(=O)c1ccc(N2CCC(CCn3cccn3)CC2)c(-c2nn[nH]n2)c1S(N)(=O)=O [Example 27, (R)-4-(4-(2-(1H-pyrazol-1-yl)ethyl)piperidin-1-yl)-N^1-(3-amino-2-hydroxypropyl)-3-(2H-tetrazol-5-yl)benzene-1,2-disulfonamide] | 25.00 µM | 15.99 | 0.18 nM | 0.07 nM | 0.05 nM | 0.06 nM | 3.13 µM | 6.25 µM | 3.13 µM | 1.56 µM
9 | NS(=O)(=O)c1c(S(=O)(=O)C2CNC2)ccc(N2CCC(O)CC2)c1-c1nnn[nH]1 [Example 31, 6-(azetidin-3-ylsulfonyl)-3-(4-hydroxypiperidin-1-yl)-2-(1H-tetrazol-5-yl)benzenesulfonamide] | 6.25 µM | 4.00 | 3.36 nM | 1.67 nM | 1.89 nM | 0.89 nM | 3.13 µM | 3.13 µM | 1.56 µM | 1.56 µM
10 | NCC1CCN(c2ccc(S(=O)(=O)NC[C@H](O)CN)c(S(N)(=O)=O)c2-c2nnn[nH]2)CC1 [Example 34] | 0.39 µM | 2.00 | 3.49 nM | 2.05 nM | 4.07 nM | 0.18 nM | 0.39 µM | 0.39 µM | 0.39 µM | 0.20 µM
11 | NCCNS(=O)(=O)c1ccc(N2CCC(CN)CC2)c(-c2nnn[nH]2)c1S(N)(=O)=O [Example 35, N1-(2-aminoethyl)-4-(4-(aminomethyl)piperidin-1-yl)-3-(1H-tetrazol-5-yl)benzene-1,2-disulfonamide] | 0.78 µM | 1.00 | 6.69 nM | 3.6 nM | 5.1 nM | 0.32 nM | 0.78 µM | 3.13 µM | 0.39 µM | 0.78 µM
12 | C[C@H](CN)NS(=O)(=O)c1ccc(N2CCC(CN)CC2)c(-c2nnn[nH]2)c1S(N)(=O)=O [Example 36, (R)-4-(4-(aminomethyl)piperidin-1-yl)-N1-(1-aminopropan-2-yl)-3-(1H-tetrazol-5-yl)benzene-1,2-disulfonamide] | 0.91 µM | 1.40 | 2.6 nM | 0.45 nM | 1.84 nM | 0.1 nM | 1.30 µM | 1.30 µM | 0.65 µM | 0.65 µM
13 | NCC1CCN(c2ccc(S(=O)(=O)NC[C@@H](O)CN)c(S(N)(=O)=O)c2-c2nnn[nH]2)CC1 [Example 37, (S)-N1-(3-amino-2-hydroxypropyl)-4-(4-(aminomethyl)piperidin-1-yl)-3-(1H-tetrazol-5-yl)benzene-1,2-disulfonamide] | 0.78 µM | 1.00 | 2.07 nM | 1.29 nM | 3.04 nM | 0.11 nM | 0.78 µM | 0.78 µM | 0.39 µM | 0.78 µM

— patent publication US11207312B2, “Metallo-beta-lactamase inhibitors and methods of use thereof” (priority 2017, dated 2021)
